Assay results: ChEMBL document CHEMBL4033735, “A potent and selective natriuretic peptide receptor-3 blocker 11-mer peptide created by hybridization of musclin and atrial natriuretic peptide” (Bioorg Med Chem Lett, 2017)
pIC50: −log10 of the molar value. Active and inactive are the calls of the source. The calls are words filed in the database; no cut-off is given here.

Tests used:
[1] = system: Serum; experiment: Stability in C57BL/6J mouse serum at 1 mM up to 4 hrs at 37 degC by HPLC method; assay type: ADME, cell-free; conditions: 1000 µM
[2] = biological target: T1, Atrial natriuretic peptide receptor 1 (Homo sapiens, UniProt P16066); experiment: Displacement of [125I]-human ANP from human NPR-1 incubated for 2 hrs by top count method
T1 sequence (P16066 whole entry): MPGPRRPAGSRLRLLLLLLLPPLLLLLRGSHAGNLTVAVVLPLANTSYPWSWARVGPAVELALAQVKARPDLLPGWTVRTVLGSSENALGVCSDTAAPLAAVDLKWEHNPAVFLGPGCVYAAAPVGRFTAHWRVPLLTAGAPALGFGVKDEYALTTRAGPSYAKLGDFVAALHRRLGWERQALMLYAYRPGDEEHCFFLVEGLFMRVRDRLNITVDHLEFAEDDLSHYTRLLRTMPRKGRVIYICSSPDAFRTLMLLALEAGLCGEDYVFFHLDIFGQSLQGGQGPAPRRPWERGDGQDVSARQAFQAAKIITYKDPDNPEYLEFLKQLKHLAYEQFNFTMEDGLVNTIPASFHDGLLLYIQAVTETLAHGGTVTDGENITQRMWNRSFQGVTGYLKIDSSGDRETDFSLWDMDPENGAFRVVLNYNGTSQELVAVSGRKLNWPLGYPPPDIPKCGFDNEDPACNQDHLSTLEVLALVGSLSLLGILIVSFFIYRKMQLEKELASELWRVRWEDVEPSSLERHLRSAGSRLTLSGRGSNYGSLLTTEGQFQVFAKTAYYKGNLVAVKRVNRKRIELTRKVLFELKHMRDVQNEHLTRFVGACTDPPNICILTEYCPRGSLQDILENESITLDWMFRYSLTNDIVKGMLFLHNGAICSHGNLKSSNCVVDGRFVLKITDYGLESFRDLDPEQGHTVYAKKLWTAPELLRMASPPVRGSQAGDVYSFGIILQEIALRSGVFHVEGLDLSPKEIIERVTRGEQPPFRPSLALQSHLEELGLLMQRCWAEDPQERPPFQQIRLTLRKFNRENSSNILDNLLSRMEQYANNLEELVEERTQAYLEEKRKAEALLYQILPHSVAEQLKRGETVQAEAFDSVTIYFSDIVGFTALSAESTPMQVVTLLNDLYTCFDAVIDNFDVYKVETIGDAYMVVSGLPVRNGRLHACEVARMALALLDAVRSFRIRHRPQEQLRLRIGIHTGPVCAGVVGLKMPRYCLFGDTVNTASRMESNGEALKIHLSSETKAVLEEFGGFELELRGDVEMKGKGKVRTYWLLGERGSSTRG

[3] = biological target: T2, Atrial natriuretic peptide receptor 3 (Homo sapiens, UniProt P17342); experiment: Displacement of [125I]-human ANP from His-tagged and Fc fragment containing human NPR-3 extracellular domain expressed in FreeStyle 293 cells incubated for 2 hrs by top count method; assay type: cell-based
T2 sequence (P17342 whole entry): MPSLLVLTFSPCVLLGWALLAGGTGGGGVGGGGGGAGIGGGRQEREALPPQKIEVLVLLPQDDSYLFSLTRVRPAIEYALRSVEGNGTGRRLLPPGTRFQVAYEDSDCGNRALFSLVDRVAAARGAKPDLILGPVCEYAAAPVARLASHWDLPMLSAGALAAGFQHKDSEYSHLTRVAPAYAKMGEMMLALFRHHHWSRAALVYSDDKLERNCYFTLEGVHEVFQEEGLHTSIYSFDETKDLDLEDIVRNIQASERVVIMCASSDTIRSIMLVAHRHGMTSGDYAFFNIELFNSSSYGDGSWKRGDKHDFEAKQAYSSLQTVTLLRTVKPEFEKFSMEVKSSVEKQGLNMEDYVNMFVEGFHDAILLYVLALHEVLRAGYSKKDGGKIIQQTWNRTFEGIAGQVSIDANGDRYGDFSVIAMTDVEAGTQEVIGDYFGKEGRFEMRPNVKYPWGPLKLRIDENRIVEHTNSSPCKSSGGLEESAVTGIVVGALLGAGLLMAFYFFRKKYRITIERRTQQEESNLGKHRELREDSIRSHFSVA

[4] = Stability in C57BL/6J mouse serum assessed as residual parent compound remaining at 1 mM after 4 hrs at 37 degC by HPLC method; assay type: ADME, cell-free; conditions: read-out: Stability
[5] = Stability in C57BL/6J mouse serum assessed as residual parent compound remaining at 1 mM after 2 hrs at 37 degC by HPLC method; assay type: ADME, cell-free; conditions: read-out: Stability
[6] = Drug level in mouse blood at 1000 nmol/kg/day dosed as continuous administration for 3 days; assay type: ADME, organism-based; conditions: whole blood, read-out: Drug uptake
[7] = system: Mus musculus; experiment: Increase in cGMP production C57BL/6J mouse blood at 1 umol/kg/day, sc administered via infusion from implanted osmotic pumps for 7 days by enzyme immunoassay; assay type: functional, organism-based
[8] = biological target: T3, Atrial natriuretic peptide receptor 3 (Mus musculus) (UniProt P70180); experiment: Activity at NPR-3 in C57BL/6J mouse primary adipocytes assessed as increase in mANP-stimulated cGMP production at 1 uM pre-incubated for 30 mins before mANP stimulation for 15 mins by enzyme immunoassay; assay type: cell-based
T3 sequence (whole entry): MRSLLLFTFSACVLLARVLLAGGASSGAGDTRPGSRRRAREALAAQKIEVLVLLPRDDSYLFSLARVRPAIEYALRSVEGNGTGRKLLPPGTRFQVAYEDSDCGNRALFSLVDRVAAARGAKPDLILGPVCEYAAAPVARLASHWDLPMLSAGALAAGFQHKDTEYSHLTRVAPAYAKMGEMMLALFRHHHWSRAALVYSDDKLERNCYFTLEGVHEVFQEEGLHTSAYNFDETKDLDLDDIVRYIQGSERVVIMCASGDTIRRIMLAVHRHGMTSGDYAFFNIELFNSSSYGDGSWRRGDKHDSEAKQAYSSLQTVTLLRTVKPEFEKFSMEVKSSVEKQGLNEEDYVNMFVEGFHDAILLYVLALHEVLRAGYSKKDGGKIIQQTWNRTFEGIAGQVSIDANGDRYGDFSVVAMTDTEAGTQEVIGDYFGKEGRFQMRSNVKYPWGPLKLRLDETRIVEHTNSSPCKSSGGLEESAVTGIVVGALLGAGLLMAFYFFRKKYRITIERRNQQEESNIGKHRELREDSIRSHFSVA

[9] = system: Mus musculus; experiment: Increase in cGMP production C57BL/6J mouse blood at 1 umol/kg/day, sc administered via infusion from implanted osmotic pumps for 7 days and co-dosed with 1 umol/kg/day mANP by enzyme immunoassay; assay type: functional, organism-based
[10] = Drug level in mouse blood at 300 nmol/kg/day dosed as continuous administration for 3 days; assay type: ADME, organism-based; conditions: whole blood, read-out: Drug uptake

Stability [1] | pIC50 [2] | pIC50 [3] | remaining at 4 h, 1000 µM [4] | remaining at 2 h, 1000 µM [5] | concentration at 72 h [6] | Activity [7] | Activity [8] | Activity [9] | concentration at 72 h [10] | Compound
Stable | < 6.00 | 10.00 | 102% | 100% | – | – | – | – | – | CC[C@H](C)[C@H](NC(=O)[C@H](CCCNC(=N)NC)NC(=O)[C@H](CC(=O)O)NC(=O)[C@@H](NC(=O)[C@@H]1C[C@@H](O)CN1C(=O)CNC(=O)[C@@H](C)NC(=O)[C@H](CC1CCCCC1)NC(=O)[C@H]1C[C@H](O)CN1C(=O)[C@H](CO)NC(=O)[C@@H](Cc1ccccc1)NC(C)=O)[C@@H](C)CC)C(=O)NC
– | < 6.00 | 10.10 | 92% | 107% | 40.5 nM | Active | Active | Active | 10.1 nM | CC[C@H](C)[C@H](NC(=O)[C@H](CCCNC(=N)NC)NC(=O)[C@H](CC(=O)O)NC(=O)[C@@H](NC(=O)[C@@H]1C[C@@H](O)CN1C(=O)CNC(=O)[C@@H](CO)NC(=O)[C@H](CC1CCCCC1)NC(=O)[C@H]1C[C@H](O)CN1C(=O)[C@H](CO)NC(=O)[C@@H](Cc1ccccc1)NC(=O)CO)[C@@H](C)CC)C(=O)NC
